Earlier results on one compound are cited in patent publication US8142802B2, “Insecticidal composition with enhanced synergistic activity” (priority 2003, dated 2012).

Molecules are shown by their SMILES.

For the data set the following is noted: at room temperature.

Turning to `COP(=O)(NC(C)=O)SC` (stereo not shown) [Acephate], the solubility in acetone was greater than 100 mg/mL, the “solubility in aromatic solvents” value was less than 50 mg/mL, the solubility in ethanol is greater than 100 mg/mL and the solubility in water entry is on record as “about 650 g/l”.
